Assays:
[1] = tested on: plasma aldosterone; assay: In vivo suppression of plasma aldosterone levels in ACTH-stimulated rats; set-up: species or system Wistar rats; details: 4 mg/kg p.o.; plasma level 2 h after administration relative to 1 h prior to administration
Experimental: (§1) The aldosterone- and corticosterone-suppressing activity of herein described compounds may be assessed with the following in vivo protocol.
(§2) Adult male Wistar rats weighing between 250 and 350 grams are kept under the usual 12 hour light and 12 hour dark conditions at a temperature of 23° C.±2° C. On the first day of the experiment, the animals receive a subcutaneous injection of a depot ACTH product in a dose of 1.0 mg/kg weight (SYNACTHEN-Depot, Novartis, Basel, CH) 16 hours prior to the administration of a test compound. […] An alternative method to stimulate aldosterone secretion consists in subjecting rats to a low salt diet for 48 hours and applying the diuretic furosemide at 10 mg/kg by subcutaneous or intraperitoneal administration 16 hours, respectively 2 hours prior to the start of the experiment. […] The aldosterone and corticosterone concentrations of the plasma samples can be determined with a radioimmunoassay as described above for the in vitro test systems.
(§3) The selective suppression of plasma steroid levels as for instance aldosterone in comparison to corticosterone may serve as a measure for in vivo bioavailability and pharmacodynamic enzyme inhibitory activity of the herein described compounds. The evaluation of the data may occur relative to the application of vehicle or quantitatively by determination of the area under the curve (AUC). […]

[2] = tested on: plasma corticosterone; assay: In vivo suppression of plasma corticosterone levels in ACTH-stimulated rats; set-up: species or system Wistar rats; details: 4 mg/kg p.o.; plasma level 2 h after administration relative to 1 h prior to administration
Experimental: as §1, §2, §3

For `N#Cc1ccc2c(c1)C1(CCC2)OCCn2cncc21` (centres unmarked) [Example 10, spiro-[(5,6-Dihydro-8H-imidazo[5,1-c][1,4]oxazine)-8,8′-(5′,6′,7′,8′-tetrahydronaphthalene-2′-carbonitrile)]], the “Aldosterone levels (% change at 2 h)” value [1] was −81.7% and the “Corticosterone levels (% change at 2 h)” value [2] was −14.5%.

Source: patent US8138179B2, “Spiro-imidazo compounds” (Novartis AG, priority 2006, dated 2012)
